Data reported in ChEMBL document CHEMBL5370619, “Targeting the Tyrosine Kinase 2 (TYK2) Pseudokinase Domain: Discovery of the Selective TYK2 Inhibitor ABBV-712” (J Med Chem, 2023).
Converted amounts (≈) assume the structure as drawn.

Key:
[1] = molecular target: T1, Tyrosine-protein kinase JAK1 (Homo sapiens, UniProt P23458); assay: Inhibition of JAK1 in human TF-1 cells assessed as reduction in IL-6 induced STAT3 phosphorylation at Tyr705 residue preincubated for 30 mins followed by IL-6 stimulation and measured after 30 mins by AlphaScreen assay; format: cell-based
T1 sequence (P23458 whole entry): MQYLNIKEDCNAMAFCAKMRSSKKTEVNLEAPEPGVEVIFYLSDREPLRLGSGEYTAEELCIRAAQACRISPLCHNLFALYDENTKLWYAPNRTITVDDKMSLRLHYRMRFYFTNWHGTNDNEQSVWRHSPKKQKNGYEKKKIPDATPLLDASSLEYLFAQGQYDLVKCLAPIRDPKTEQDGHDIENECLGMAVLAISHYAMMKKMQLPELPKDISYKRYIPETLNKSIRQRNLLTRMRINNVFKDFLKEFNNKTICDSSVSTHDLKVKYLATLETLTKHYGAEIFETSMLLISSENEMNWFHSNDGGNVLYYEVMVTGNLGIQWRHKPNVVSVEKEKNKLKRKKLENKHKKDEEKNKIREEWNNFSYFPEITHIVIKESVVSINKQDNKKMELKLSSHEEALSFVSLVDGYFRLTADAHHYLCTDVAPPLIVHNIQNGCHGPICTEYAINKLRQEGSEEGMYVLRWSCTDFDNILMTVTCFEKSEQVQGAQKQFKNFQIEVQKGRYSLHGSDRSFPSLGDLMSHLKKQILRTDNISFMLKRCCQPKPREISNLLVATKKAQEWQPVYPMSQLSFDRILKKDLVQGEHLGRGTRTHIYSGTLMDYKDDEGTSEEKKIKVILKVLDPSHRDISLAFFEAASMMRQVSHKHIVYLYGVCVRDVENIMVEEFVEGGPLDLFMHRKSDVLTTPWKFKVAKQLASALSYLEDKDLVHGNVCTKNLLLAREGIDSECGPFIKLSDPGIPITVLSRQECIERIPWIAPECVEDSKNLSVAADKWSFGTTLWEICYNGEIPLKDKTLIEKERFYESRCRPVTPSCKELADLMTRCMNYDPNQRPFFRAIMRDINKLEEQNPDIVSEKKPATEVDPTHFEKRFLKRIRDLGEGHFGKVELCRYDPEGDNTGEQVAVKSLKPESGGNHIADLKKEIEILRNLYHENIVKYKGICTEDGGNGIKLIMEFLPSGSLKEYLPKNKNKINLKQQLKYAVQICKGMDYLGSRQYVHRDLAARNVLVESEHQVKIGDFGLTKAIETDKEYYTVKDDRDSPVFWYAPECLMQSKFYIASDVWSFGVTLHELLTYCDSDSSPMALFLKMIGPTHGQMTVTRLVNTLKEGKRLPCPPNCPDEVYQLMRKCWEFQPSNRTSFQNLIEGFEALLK

[2] = Metabolic stability in human hepatocytes assessed as intrinsic clearance for unbound fraction of drug; format: ADME, cell-based, Hepatocyte
[3] = Thermodynamic solubility in PBS at pH 7.4; format: physicochemical; conditions: read-out: Therm_solubility
[4] = molecular target: Tyrosine-protein kinase JAK2 (Homo sapiens, UniProt O60674); assay: Inhibition of JAK2 in human UT7 cells assessed as reduction in erythropoietin induced STAT5 phosphorylation preincubated for 30 mins followed by erythropoietin stimulation and measured after 20 mins by AlphaScreen assay; format: cell-based
Sequence of Tyrosine-protein kinase JAK2 (O60674 whole entry): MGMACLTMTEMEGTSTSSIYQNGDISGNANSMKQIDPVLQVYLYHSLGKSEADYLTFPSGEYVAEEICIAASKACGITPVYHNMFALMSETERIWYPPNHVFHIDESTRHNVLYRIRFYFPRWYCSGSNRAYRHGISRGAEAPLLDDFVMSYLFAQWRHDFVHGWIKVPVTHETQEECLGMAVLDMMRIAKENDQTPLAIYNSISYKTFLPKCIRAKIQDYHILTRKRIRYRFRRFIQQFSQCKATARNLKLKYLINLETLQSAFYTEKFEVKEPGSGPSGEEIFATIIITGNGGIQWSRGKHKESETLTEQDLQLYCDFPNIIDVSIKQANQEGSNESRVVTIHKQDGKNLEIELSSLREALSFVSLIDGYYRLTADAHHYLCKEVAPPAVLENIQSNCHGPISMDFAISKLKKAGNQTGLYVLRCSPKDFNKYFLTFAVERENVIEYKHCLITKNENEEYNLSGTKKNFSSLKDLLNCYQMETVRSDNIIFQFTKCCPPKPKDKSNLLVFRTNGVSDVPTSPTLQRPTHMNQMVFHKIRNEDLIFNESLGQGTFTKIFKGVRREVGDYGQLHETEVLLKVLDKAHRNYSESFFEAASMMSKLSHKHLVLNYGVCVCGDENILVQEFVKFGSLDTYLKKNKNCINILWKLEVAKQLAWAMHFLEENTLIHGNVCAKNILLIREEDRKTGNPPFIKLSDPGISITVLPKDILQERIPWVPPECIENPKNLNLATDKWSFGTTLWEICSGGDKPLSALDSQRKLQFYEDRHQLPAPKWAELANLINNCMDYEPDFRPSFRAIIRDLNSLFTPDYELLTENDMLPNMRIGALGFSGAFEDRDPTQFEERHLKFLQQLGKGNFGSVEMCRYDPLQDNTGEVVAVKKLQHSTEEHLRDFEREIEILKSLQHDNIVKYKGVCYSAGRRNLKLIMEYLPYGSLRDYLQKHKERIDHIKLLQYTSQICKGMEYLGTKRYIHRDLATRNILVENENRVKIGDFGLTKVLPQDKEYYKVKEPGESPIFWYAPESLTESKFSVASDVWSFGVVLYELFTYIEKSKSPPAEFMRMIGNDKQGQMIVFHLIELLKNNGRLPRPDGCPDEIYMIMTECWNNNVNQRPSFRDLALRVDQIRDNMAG

[5] = molecular target: T2, Tyrosine-protein kinase JAK3 (Homo sapiens, UniProt P52333); assay: Inhibition of JAK3 in human T-blast cells assessed as reduction in IL-2 induced STAT5 phosphorylation preincubated for 30 mins followed by IL-2 stimulation and measured after 20 mins by AlphaScreen assay; format: cell-based, T-blast cell
T2 sequence (P52333 whole entry): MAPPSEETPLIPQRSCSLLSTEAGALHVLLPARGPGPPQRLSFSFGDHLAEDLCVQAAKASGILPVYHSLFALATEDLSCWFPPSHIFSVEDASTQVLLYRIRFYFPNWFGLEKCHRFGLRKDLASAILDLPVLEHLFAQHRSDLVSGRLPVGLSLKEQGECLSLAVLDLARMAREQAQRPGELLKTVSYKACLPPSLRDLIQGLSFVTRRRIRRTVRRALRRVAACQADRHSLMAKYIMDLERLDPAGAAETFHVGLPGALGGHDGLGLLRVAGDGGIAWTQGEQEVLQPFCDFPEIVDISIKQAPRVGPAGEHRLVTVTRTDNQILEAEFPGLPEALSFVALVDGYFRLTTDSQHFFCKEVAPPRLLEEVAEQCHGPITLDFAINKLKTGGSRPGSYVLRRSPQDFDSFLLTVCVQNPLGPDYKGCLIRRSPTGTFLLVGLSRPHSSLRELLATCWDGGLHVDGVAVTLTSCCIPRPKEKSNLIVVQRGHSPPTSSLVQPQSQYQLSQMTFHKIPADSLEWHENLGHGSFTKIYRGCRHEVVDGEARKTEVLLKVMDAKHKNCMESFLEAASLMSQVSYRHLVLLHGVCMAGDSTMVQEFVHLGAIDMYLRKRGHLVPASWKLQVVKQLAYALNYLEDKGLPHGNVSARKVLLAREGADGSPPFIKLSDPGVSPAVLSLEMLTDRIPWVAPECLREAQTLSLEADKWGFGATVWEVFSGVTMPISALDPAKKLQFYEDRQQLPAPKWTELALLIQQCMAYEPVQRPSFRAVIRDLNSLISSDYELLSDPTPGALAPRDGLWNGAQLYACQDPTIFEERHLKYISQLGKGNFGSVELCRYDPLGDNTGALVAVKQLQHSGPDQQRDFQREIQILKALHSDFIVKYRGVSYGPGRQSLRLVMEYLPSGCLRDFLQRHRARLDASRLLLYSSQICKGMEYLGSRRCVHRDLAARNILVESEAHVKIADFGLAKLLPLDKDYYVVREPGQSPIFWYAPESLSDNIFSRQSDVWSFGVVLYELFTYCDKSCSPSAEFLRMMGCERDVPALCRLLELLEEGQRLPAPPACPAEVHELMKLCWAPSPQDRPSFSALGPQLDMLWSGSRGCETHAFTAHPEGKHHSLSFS

CYP3A4 [6] = molecular target: T3, CYP3A4 (Homo sapiens, UniProt P08684); assay: Time dependent inhibition of CYP3A4 in human liver microsomes using midazolam as substrate assessed as 1'-OH midazolam metabolite formation at 50 uM preincubated for 30 mins in presence of NADPH followed by substrate addition and measured after 15 mins by HPLC-MS/MS analysis relative to control; format: ADME, Microsome; conditions: probe midazolam, time 45 min, read-out: TDI
T3 sequence (P08684 whole entry): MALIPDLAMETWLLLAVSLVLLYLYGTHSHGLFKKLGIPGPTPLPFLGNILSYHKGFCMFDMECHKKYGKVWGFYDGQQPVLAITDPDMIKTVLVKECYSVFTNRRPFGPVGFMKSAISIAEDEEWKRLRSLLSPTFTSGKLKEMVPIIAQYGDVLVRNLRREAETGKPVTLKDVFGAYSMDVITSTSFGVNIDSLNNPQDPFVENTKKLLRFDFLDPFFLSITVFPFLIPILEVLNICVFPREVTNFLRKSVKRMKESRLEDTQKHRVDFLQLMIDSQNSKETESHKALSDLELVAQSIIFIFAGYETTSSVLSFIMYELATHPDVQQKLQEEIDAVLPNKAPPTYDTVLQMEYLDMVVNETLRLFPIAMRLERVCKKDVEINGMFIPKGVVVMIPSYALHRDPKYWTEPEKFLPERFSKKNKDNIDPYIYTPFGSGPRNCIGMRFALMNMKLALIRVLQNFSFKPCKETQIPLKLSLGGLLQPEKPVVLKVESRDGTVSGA

CYP3A4 [7] = molecular target: T3, CYP3A4; assay: Induction of CYP3A4 in human hepatocytes assessed as fold increase in mRNA level at 10 uM incubated for 24 hrs by RT-qPCR analysis relative to control; format: ADME, cell-based, Hepatocyte; conditions: read-out: FC
CYP3A4 [8] = molecular target: T3, CYP3A4; assay: Induction of CYP3A4 in human hepatocytes assessed as maximum activation in mRNA level at 10 uM incubated for 24 hrs by RT-qPCR analysis relative to control; format: ADME, cell-based, Hepatocyte; conditions: read-out: max activation
[9] = Unbound clearance in rat blood at 1 mg/kg, iv or 1 mg/kg,po; format: ADME, organism-based; conditions: in vivo
[10] = Half life in rat at 1 mg/kg, iv or 1 mg/kg,po; format: ADME, organism-based; conditions: in vivo
[11] = Volume of distribution at steady state in rat at 1 mg/kg, iv or 1 mg/kg,po; format: ADME, organism-based; conditions: in vivo, read-out: Vdss
[12] = Oral bioavailability in rat at 1 mg/kg; format: ADME, organism-based; conditions: in vivo
[13] = Metabolic stability in dog hepatocytes assessed as intrinsic clearance for unbound fraction of drug; format: ADME, cell-based, Canis lupus familiaris, Hepatocyte
[14] = Metabolic stability in monkey hepatocytes assessed as intrinsic clearance for unbound fraction of drug; format: ADME, cell-based, Macaca mulatta, Hepatocyte; conditions: rhesus monkey
[15] = Unbound clearance in dog blood at 0.5 mg/kg, iv; format: ADME, organism-based, Canis lupus familiaris; conditions: in vivo
[16] = Half life in dog at 0.5 mg/kg, iv; format: ADME, organism-based, Canis lupus familiaris; conditions: in vivo
[17] = AUC (0 to infinity) in dog at 0.5 mg/kg,po; format: ADME, organism-based, Canis lupus familiaris; design: dose 0.5 mg/kg, route po; conditions: in vivo
[18] = Oral bioavailability in dog at 0.5 mg/kg; format: ADME, organism-based, Canis lupus familiaris; conditions: in vivo
[19] = Unbound clearance in cynomolgus monkey blood at 0.5 mg/kg, iv; format: ADME, organism-based, Macaca fascicularis; conditions: in vivo
[20] = Half life in cynomolgus monkey at 0.5 mg/kg, iv; format: ADME, organism-based, Macaca fascicularis; conditions: in vivo
[21] = molecular target: T4, Non-receptor tyrosine-protein kinase TYK2 (Homo sapiens, UniProt P29597); assay: Inhibition of recombinant human N-terminal His-tagged TYK2 JH2 domain (577 to 870 residues) expressed in Sf9 cells using N-(2-(2-(2-((3-(5-acetamido-3-(3-(N,N-dimethylsulfamoyl)phenyl)-1H-pyrrolo[2,3-c]pyridin-1-yl)propyl)amino)-2-oxoethoxy)ethoxy)ethyl)-2',7'-difluoro-3',6'-dihydroxy-3-oxo-3H-spiro[isobenzofuran-1,9'-xanthene]-5-carboxamide trifluoroacetate as substrate incubated for 60 mins by TR-FRET assay
T4 sequence (P29597 whole entry, the tested form may be a part): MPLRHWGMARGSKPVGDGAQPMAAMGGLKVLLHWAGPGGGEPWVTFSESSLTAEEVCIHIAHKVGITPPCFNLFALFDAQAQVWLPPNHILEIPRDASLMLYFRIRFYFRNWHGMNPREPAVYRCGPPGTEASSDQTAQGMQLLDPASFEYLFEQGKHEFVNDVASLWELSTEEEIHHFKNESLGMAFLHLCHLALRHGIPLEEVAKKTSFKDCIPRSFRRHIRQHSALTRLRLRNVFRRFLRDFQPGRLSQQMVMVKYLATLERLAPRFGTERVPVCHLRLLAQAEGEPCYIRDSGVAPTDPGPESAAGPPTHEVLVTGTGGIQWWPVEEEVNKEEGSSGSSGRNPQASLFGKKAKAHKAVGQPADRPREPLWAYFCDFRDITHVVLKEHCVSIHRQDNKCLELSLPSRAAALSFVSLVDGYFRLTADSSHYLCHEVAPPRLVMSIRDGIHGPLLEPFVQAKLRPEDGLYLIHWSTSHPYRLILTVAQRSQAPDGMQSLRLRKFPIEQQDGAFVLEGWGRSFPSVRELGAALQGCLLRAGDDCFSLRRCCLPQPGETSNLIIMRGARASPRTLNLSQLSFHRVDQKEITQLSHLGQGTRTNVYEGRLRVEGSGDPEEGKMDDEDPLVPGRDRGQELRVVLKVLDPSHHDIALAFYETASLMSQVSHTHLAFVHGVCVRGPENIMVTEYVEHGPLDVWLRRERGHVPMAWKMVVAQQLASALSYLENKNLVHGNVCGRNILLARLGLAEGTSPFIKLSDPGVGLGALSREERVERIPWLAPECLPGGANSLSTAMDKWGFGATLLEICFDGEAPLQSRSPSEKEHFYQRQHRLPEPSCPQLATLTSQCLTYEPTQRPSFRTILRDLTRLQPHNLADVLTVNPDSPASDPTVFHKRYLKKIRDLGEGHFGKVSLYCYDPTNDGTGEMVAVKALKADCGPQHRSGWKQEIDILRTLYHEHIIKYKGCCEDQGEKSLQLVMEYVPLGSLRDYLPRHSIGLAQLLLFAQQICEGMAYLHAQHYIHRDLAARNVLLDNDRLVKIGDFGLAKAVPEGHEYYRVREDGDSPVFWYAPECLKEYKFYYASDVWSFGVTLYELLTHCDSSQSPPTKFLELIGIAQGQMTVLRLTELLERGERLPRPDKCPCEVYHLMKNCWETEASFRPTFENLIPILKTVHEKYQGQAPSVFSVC

[22] = molecular target: T4, Non-receptor tyrosine-protein kinase TYK2; assay: Inhibition of TYK2 in human T-blast cells assessed as IL-12 induced STAT4 phosphorylation at Tyr694 residue preincubated for 30 mins followed by IL-12 stimulation and measured after 20 mins by AlphaScreen assay; format: cell-based, T-blast cell
[23] = molecular target: T4, Non-receptor tyrosine-protein kinase TYK2; assay: Inhibition of TYK2 JH1 domain (unknown origin) by TR-FRET assay
[24] = molecular target: T1, Tyrosine-protein kinase JAK1; assay: Inhibition of JAK1 JH1 domain (unknown origin) by TR-FRET assay
[25] = Selectivity ratio of IC50 for inhibition of TYK2 JH1 domain (unknown origin) to IC50 for inhibition of recombinant human N-terminal His-tagged TYK2 JH2 domain (577 to 870 residues) expressed in Sf9 cells
[26] = Selectivity ratio of IC50 for inhibition of JAK1 JH1 domain (unknown origin) to IC50 for inhibition of recombinant human N-terminal His-tagged TYK2 JH2 domain (577 to 870 residues) expressed in Sf9 cells

SMILES	EC50 [1] [µM]	CL free [2] [L/h/kg]	solubility thermodynamic [3] [µM]	inhibition at 0.25 h, 50 µM (CYP3A4 [6]) [%]	fold induction at 24 h, 10 µM (CYP3A4 [7])	Emax at 24 h, 10 µM (CYP3A4 [8]) [%]	IC50 [21] [µM]	EC50 [22] [µM]	also measured
CO[C@@]1(c2cc(O[C@@H](C)CCO)cc(-c3cn(C)c4cnc(NC(C)=O)cc34)n2)CCOC1	> 20	6.1	190 (≈ 86.4 µg/mL)	21	1.8	3	–	–	EC50 [4]: > 20 µM; EC50 [5]: > 20 µM; CL free [9]: 6.1 L/h/kg; half-life [10]: 0.5 h; Vd [11]: 2.5 L/kg; bioavailability [12]: 16%; CL free [13]: 1.8 L/h/kg; CL free [14]: 6.4 L/h/kg; CL free [15]: 2.5 L/h/kg; half-life [16]: 3 h; AUC(0-inf) [17]: 0.3 µg·h/mL; bioavailability [18]: 71%; CL free [19]: 4.7 L/h/kg; half-life [20]: 1.4 h
CN(C)S(=O)(=O)c1cccc(-c2c[nH]c3cnc(NC(=O)C4CC4)cc23)c1	36.3	45.9	< 0.8	–	–	–	0.48	0.54	–
CO[C@]1(c2cccc(-c3cn(C)c4cnc(NC(C)=O)cc34)n2)CCOC1	–	4.8	29 (≈ 10.6 µg/mL)	–	–	–	0.06	1.5	–
CO[C@@]1(c2cc(C#N)cc(-c3cn([C@@H]4CC4(F)F)c4cnc(NC(C)=O)cc34)n2)CCOC1	–	4.1	–	20	13	40	–	–	–
CO[C@@]1(c2cccc(-c3cn(C)c4cnc(NC(C)=O)cc34)n2)CCOC1	–	4.8	20 (≈ 7.33 µg/mL)	–	–	–	0.03	–	–
CC(=O)Nc1cc2c(-c3cccc(S(=O)(=O)C4COC4)n3)cn(C)c2cn1	14	–	–	–	–	–	0.035	0.194	–
COc1cc(-c2cn(C3COC3)c3cnc(NC(C)=O)cc23)nc([C@]2(OC)CCOC2)c1	–	0.75	–	43	13	49	–	–	–
CO[C@@]1(c2cc(OC(F)F)cc(-c3cn(C)c4cnc(NC(C)=O)cc34)n2)CCOC1	–	6.1	–	53	6	64	–	–	–
CO[C@@]1(c2cc(OCC#N)cc(-c3cn(C)c4cnc(NC(C)=O)cc34)n2)CCOC1	–	2	–	–	–	–	–	–	–
CC(=O)Nc1cc2c(-c3cccc(S(=O)(=O)N(C)C)n3)cn(C)c2cn1	3.4	7.9	2.4 (≈ 0.896 µg/mL)	–	–	–	0.004	0.024	–
CC(=O)Nc1cc2c(-c3cccc(S(=O)(=O)N(C)C)c3)c[nH]c2cn1	19.7	6.8	1.2 (≈ 0.43 µg/mL)	–	–	–	0.03	0.12	IC50 [23]: 6 µM; IC50 [24]: 40 µM; Ratio IC50 [25]: > 200; Ratio IC50 [26]: > 200; EC50 [4]: > 19 µM; EC50 [5]: > 19 µM
CO[C@@]1(c2cc(OCC[C@@H](C)O)cc(-c3cn(C)c4cnc(NC(C)=O)cc34)n2)CCOC1	> 20	–	105 (≈ 47.7 µg/mL)	8	2.6	6	–	0.077	EC50 [4]: > 20 µM; EC50 [5]: > 20 µM; CL free [9]: 34 L/h/kg; half-life [10]: 1.1 h; Vd [11]: 19 L/kg; bioavailability [12]: 26%
CO[C@@]1(c2cc(C(F)F)cc(-c3cn(C)c4cnc(NC(C)=O)cc34)n2)CCOC1	–	1.9	–	49	7.7	23	–	0.04	–
CCS(=O)(=O)c1cccc(-c2cn(C)c3cnc(NC(C)=O)cc23)n1	17.7	5.1	–	–	–	–	0.009	0.093	–
CO[C@@]1(c2cccc(-c3cn(C)c4cnc(NC(N)=O)cc34)n2)CCOC1	–	2.5	16 (≈ 5.88 µg/mL)	–	–	–	0.005	0.06	–
COCCOc1cc(-c2cn(C)c3cnc(NC(C)=O)cc23)nc([C@]2(OC)CCOC2)c1	–	6.6	–	6	4	42	–	0.03	–
CC(=O)Nc1cc2c(-c3cccc(S(=O)(=O)N(C)C)c3)cn(C)c2cn1	6.8	8.4	3.2 (≈ 1.19 µg/mL)	–	–	–	0.01	0.02	–
